Reference: US20190015650A1, “MICRONEEDLE TATTOO PATCHES AND USE THEREOF” (Massachusetts Institute of Technology, priority 2017, published 2019)

Tests used:
[1] = Chemical stability of dyes: hydrogen peroxide and pH; type: physicochemical
Description: Additional evaluations on the dyes to withstand oxidative stress were tested by submerging the dye in 3 mM or 3 micromolar hydrogen peroxide, and compared for signal before and after such treatment (FIG. 9B). 23 fluorophores were tested.
The pH stability of the dyes was evaluated by submerging in different pH ranging from 1 to 13 (FIG. 9C). 17 fluorophores were tested.

[2] = Photostability of dyes exposed to compact fluorescent (CFL) bulb; type: physicochemical
Description: Dyes were prepared in solution (1 mM) or suspension (1 mg/mL) and exposed to light from a compact fluorescent (CFL) bulb (FIG. 9A). 55 fluorophores were tested including organic, encapsulated organic, inorganic, inorganic nanoparticle, tattoo, and semiconducting polymer dots.

| Performance: chemical stability [1] | Performance: photostability [2] | Molecule |
| --- | --- | --- |
| Poor chemical stability | Poor photostability | CCN1/C(=C/C=C/C=C/C2=[N+](CCCCCC(=O)O)c3ccc(S(=O)(=O)O)cc3C2(C)C)C(C)(C)c2cc(S(=O)(=O)[O-])ccc21 [CY5] |
| Poor chemical stability | Poor photostability | CCN1C(=CC=CC=CC=CC2=[N+](CCCCCC(=O)O)c3ccc(S(=O)(=O)O)cc3C2(C)C)C(C)(C)c2cc(S(=O)(=O)[O-])ccc21 [CY7] |
|  | Poor photostability | O=C1OC2(c3ccc(O)cc3Oc3cc(O)ccc32)c2ccccc21 [Fluorescein] |
|  | Poor photostability | Rhodamine |

| Molecule | Performance: chemical stability [1] | Performance: photostability [2] |
| --- | --- | --- |
| CCCN1/C(=C/C=C2\CCCC(/C=C/C3=[N+](CCC)c4ccccc4C3(C)C)=C2Cl)C(C)(C)c2ccccc21.[I-] [IR780] | Poor chemical stability | Poor photostability |
